Each structure is given as a SMILES string. Structures can show the parent of a compound that is named as a salt.

Among the data in patent US10100050B2 (CHIESI FARMACEUTICI S.P.A., priority 2015, dated 2018) are IC50 values, retold here.

One assay concerns BEAS-2B cells. Put plainly: TNFα-stimulated BEAS-2B IL-8 release assay. It is filed as cell-based. To be noted: Homo sapiens, IC50 classes, TNF-α 10 ng/ml, 18 h, read-out: TNFα-stimulated BEAS-2B IL-8 release inhibition. As to the method:
TNFα-Stimulated BEAS-2B IL-8 Release Assay
Human bronchial epithelial cell line BEAS-2B was purchased from Sigma (St. Louis, Mo.). BEAS-2B cells were cultured in Bronchial Epithelial cell Growth Medium (BEGM), prepared by supplementing Bronchial Epithelial Basal Medium with SingleQuotes™ (Lonza, Switzerland), which contains retinoic acid, epidermal growth factor, epinephrine, transferrin, triiodothyronin, insulin, hydrocortisone, antimicrobial agents, and bovine pituitary extract. In addition, BEGM medium was supplemented with 2 mM glutamine, 100 U penicillin and 100 μg/ml streptomycin (Life Technologies), in an atmosphere of 95% air and 5% CO2 at 37° C.
BEAS-2B were seeded in 48-well plates at the density of 3×10^4 cells per well, grown to approximately 80-90% confluence. Cells were pre-incubated with p38 inhibitors for 1 hour and then stimulated with TNF-α (10 ng/ml) for 18 h at 37° C. with 5% CO2. Subsequently, supernatants were collected and used for measuring IL-8 levels using a paired antibody quantitative ELISA kit purchased from Life Technologies (detection limit: […]). All the treatments were performed at least in quadruplicate.
A concentration-response curve to each test compound was performed and the effect of compound in each experiment was expressed as a percentage inhibition of the control IL-8 release. Compound potency (IC50) was calculated by the analysis of the sigmoidal dose-response curve (variable slope) elaborated by Graph Pad PRISM4 program.

In assay [1] the test system is Peripheral Blood Mononuclear Cells (PBMCs). The experiment in a line: LPS-stimulated PBMC TNFα release assay. The format is cell-based. To be noted: IC50 classes; human PBMC, LPS 10 ng/ml, 18 h; read-out: LPS-stimulated PBMC TNFα release inhibition. As to the method:
1-10 nM ‘+’; • <1 nM ‘++’ LPS-Stimulated PBMC TNFα Release Assay
Peripheral Blood Mononuclear Cells (PBMCs) were isolated from healthy human volunteer blood using a standard density gradient centrifugation technique. Citrated blood was placed onto Histopaque™ and centrifuged. The PBMCs were removed from the density gradient interface and washed in phosphate buffered saline (PBS). The PBMCs were suspended in RPMI 1640 medium (without serum), dispensed into a 96-well plate and incubated at 37° C. for 3 h in a humidified incubator. After incubation, the medium was replaced (with medium containing 1% foetal bovine serum) and the plate incubated at 37° C., for 1 h, in the presence of test compound or the appropriate vehicle. LPS (10 ng/ml), or an appropriate vehicle control, was then added to the cells and the plate returned to the incubator for 18 h. Cell-free supernatants were removed and assayed for TNFα levels using MSD plates on the Sector Imager 6000 (MesoScale).
A dose response curve to each test compound was performed and the effect of compound in each experiment was expressed as a percentage inhibition of the control TNFα release. Dose response curves were plotted and compound potency (IC50) was determined. Compounds were tested in at least three separate experiments.

Another assay deals with T1, p38alpha (Homo sapiens, UniProt Q16539).
T1 construct: purchased Invitrogen PV3304
T1 sequence (Q16539 whole entry): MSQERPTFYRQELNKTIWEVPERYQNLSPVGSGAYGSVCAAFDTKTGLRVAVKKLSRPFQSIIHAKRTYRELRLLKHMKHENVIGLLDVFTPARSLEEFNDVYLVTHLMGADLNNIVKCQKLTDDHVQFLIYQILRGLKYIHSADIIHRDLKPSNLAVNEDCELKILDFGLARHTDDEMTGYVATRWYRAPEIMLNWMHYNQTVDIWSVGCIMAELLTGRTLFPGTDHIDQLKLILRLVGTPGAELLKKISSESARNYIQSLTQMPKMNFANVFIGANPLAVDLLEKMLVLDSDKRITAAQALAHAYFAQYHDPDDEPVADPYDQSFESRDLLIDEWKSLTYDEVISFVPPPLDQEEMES
Put plainly: P38alpha enzyme inhibition assay (Alphascreen kinase activity assay). It is filed as biochemical. To be noted: IC50 classes; 2 hours preincubation at 25° C., 250 μM ATP; read-out: p38α inhibition. Here is the method:
P38alpha Enzyme Inhibition Assay
The inhibitory activity of compounds was determined using an Alphascreen® (Perkin Elmer) based kinase activity assay. Kinase reactions consisted of 25 mM HEPES pH 7.5, 10 mM MgCl2, 100 μM Na3VO4, 2 mM DTT, 0.05 mg/ml Tween […] (Invitrogen, PV3304), 1% DMSO and 0.3 μg/ml ATF-2 fusion protein (New England Biolabs, 9224). Compounds were incubated under these conditions for 2 hours, at 25° C., prior to the initiation of the kinase activity by the addition of the 250 μM ATP. Reaction volumes were 20 uL. After 1 hr at 25° C. reactions were stopped by the adding 10 uL of 25 mM HEPES pH 7.5 containing 62.5 mM EDTA, 0.05% Triton X-100, 10% BSA and 0.83 ng/uL anti-phospho-ATF2 antibody (Abcam, ab28812). Detection was performed by measuring luminescence following the addition of Alphascreen Donor beads (Perkin Elmer 6765300) and Protein A Alphascreen Acceptor beads (Perkin Elmer 6760137), both at a final concentration of 20 ug/ml. IC50 values were determined from concentration-response curves.
(In general: In Alpha technology, singlet oxygen from a donor bead excites a nearby acceptor bead.)

On to `COc1c(CO)cc(C(C)(C)C)cc1NC(=O)N[C@H]1CC[C@@H](Oc2ccc3nnc([C@@H]4CCCCN4C)n3c2)c2ccccc21` [Example 5, 1-(5-tert-Butyl-3-hydroxymethyl-2-methoxy-phenyl)-3-{(1S,4R)-4-[3-((S)-1-methyl-piperidin-2-yl)-[1,2,4]triazolo[4,3-a]pyridin-6-yloxy]-1,2,3,4-tetrahydro-naphthalen-1-yl}-urea], for which the results for the IC50 (in the assay with BEAS-2B cells; in assay [1]; on p38alpha) were under 0.3 nM, under 1 nM and 1 to 10 nM, respectively.

Regarding `CNS(=O)(=O)c1cc(NC(=O)N[C@H]2CC[C@@H](Oc3ccc4nnc([C@@H]5CCCN5C)n4c3)c3ccccc32)cc(C(C)(C)C)c1` [Example 38, 3-tert-Butyl-N-methyl-5-(3-{(1S,4R)-4-[3-((S)-1-methyl-pyrrolidin-2-yl)-[1,2,4]triazolo[4,3-a]pyridin-6-yloxy]-1,2,3,4-tetrahydro-naphthalen-1-yl}-ureido)-benzenesulfonamide], the IC50 in the assay with BEAS-2B cells was 0.3 to 1 nM; in assay [1], 1 to 5 nM; on p38alpha it was under 1 nM.

Consider `CN1CCC[C@@]1(C)c1nnc2ccc(O[C@@H]3CC[C@H](NC(=O)Nc4cc(N5CCNCC5)cc(C(C)(C)C)c4)c4ccccc43)cn12` [Example 64, 1-(3-tert-Butyl-5-piperazin-1-yl-phenyl)-3-{(1S,4R)-4-[3-((S)-1,2-dimethyl-pyrrolidin-2-yl)-[1,2,4]triazolo[4,3-a]pyridin-6-yloxy]-1,2,3,4-tetrahydro-naphthalen-1-yl}-urea], for which the figures for the IC50 (in the assay on BEAS-2B cells; in assay [1]; on p38alpha) were over 1 nM, over 5 nM and under 1 nM, respectively.

Consider `CN1CCC[C@@]1(C)c1nnc2ccc(O[C@@H]3CC[C@H](NC(=O)Nc4cc(CO)cc(C(C)(C)C)c4)c4ccccc43)cn12` [Example 49, 1-(3-tert-Butyl-5-hydroxymethyl-phenyl)-3-{(1S,4R)-4-[3-((S)-1,2-dimethyl-pyrrolidin-2-yl)-[1,2,4]triazolo[4,3-a]pyridin-6-yloxy]-1,2,3,4-tetrahydro-naphthalen-1-yl}-urea], for which the IC50 in the assay with BEAS-2B cells is under 0.3 nM; in assay [1], under 1 nM; on p38alpha, under 1 nM.

For the compound `CN1CCC[C@@]1(C)c1nnc2ccc(O[C@@H]3CC[C@H](NC(=O)Nc4cc(COCCN5CCOCC5)cc(C(C)(C)C)c4)c4ccccc43)cn12` [Example 72, 1-[3-tert-Butyl-5-(2-morpholin-4-yl-ethoxymethyl)-phenyl]-3-{(1S,4R)-4-[3-((S)-1,2-dimethyl-pyrrolidin-2-yl)-[1,2,4]triazolo[4,3-a]pyridin-6-yloxy]-1,2,3,4-tetrahydro-naphthalen-1-yl}-urea], the results for the IC50 (with BEAS-2B cells; in assay [1]; at p38alpha) were 0.3 to 1 nM, over 5 nM and under 1 nM, respectively.

Regarding `CN1CCC[C@@]1(C)c1nnc2ccc(O[C@@H]3CC[C@H](NC(=O)Nc4cc(COCCN5CCCCC5)cc(C(C)(C)C)c4)c4ccccc43)cn12` [Example 71, 1-[3-tert-Butyl-5-(2-piperidin-1-yl-ethoxymethyl)-phenyl]-3-{(1S,4R)-4-[3-((S)-1,2-dimethyl-pyrrolidin-2-yl)-[1,2,4]triazolo[4,3-a]pyridin-6-yloxy]-1,2,3,4-tetrahydro-naphthalen-1-yl}-urea], the IC50 is 0.3 to 1 nM in the assay on BEAS-2B cells, 1 to 5 nM in assay [1] and under 1 nM on p38alpha.

Consider `CCS(=O)(=O)Nc1cc(C(C)(C)C)cc(NC(=O)N[C@H]2CC[C@@H](Oc3ccc4nnc(C(C)(C)N(C)C)n4c3)c3ccccc32)c1OC` [Example 13, Ethanesulfonic acid [5-tert-butyl-3-(3-{(1S,4R)-4-[3(1-dimethylamino-1-methyl-ethyl)-[1,2,4]triazolo[4,3-a]pyridin-6-yloxy]-1,2,3,4-tetrahydro-naphthalen-1-yl}-ureido)-2-methoxy-phenyl]-amide hydrochloride salt], for which the IC50 was under 0.3 nM in the assay on BEAS-2B cells, under 1 nM in assay [1] and 1 to 10 nM at p38alpha.
